From ChEMBL document CHEMBL5338731, “Development of Neuropeptide Hemokinin-1 Analogues with Antimicrobial and Wound-Healing Activity” (J Med Chem, 2023)
Active and inactive are the calls of the source. No cut-off for these calls is given here.

Key:
[1] = system: RAW264.7; assay: Anti-inflammatory activity against LPS-stimulated mouse RAW264.7 cells assessed as reduction in TNF-alpha mRNA expression level at 1 to 16 uM incubated for 4 hrs by RT-qPCR analysis; type: functional, cell-based; conditions: dose 1-16 µM
[2] = system: Cell membrane; assay: Induction of cell membrane disruption in Staphylococcus aureus ATCC 25923 assessed as separation between […] at 2 times MIC incubated for 2 hrs by TEM analysis; type: subcellular
[3] = system: Escherichia coli; assay: Antimicrobial activity against Escherichia coli ATCC 25922 assessed as inhibition of bacterial growth incubated for 18 hrs by serial dilution method; type: functional
[4] = species on record: Mus musculus; assay: Antimicrobial activity in Staphylococcus aureus ATCC 25923 infected Kunming mouse excisional wound model assessed as decrease in bacterial growth at 1 10^-4M, TOP BID and measured upto 8 days by image analysis; type: functional, organism-based; conditions: time <= 8.0 day
[5] = system: Pseudomonas aeruginosa; assay: Antimicrobial activity against Pseudomonas aeruginosa PAO1 assessed as inhibition of bacterial growth incubated for 18 hrs by serial dilution method; type: functional
[6] = species on record: Mus musculus; assay: Wound healing activity in STZ-induced Kunming mouse diabetic wound model assessed as increase in wound repair at 1 10^-7M, TOP BID and measured upto 8 days by image analysis; type: functional, organism-based; conditions: time <= 8.0 day
[7] = system: Cell membrane; assay: Induction of cell membrane disruption in Staphylococcus aureus ATCC 25923 assessed as distinct wrinkling in cell morphology at 2 times MIC incubated for 2 hrs by SEM analysis; type: subcellular
[8] = system: Escherichia coli; assay: Bactericidal activity against Escherichia coli ATCC 25922 assessed as reduction in colony forming unit at 2 times MIC and measured after 90 mins by time-kill kinetics assay; type: functional, organism-based
[9] = system: NIH3T3; assay: Induction of cell migration in mouse NIH3T3 cells assessed as […] at 0.1 to 1000 nM incubated for 48 hrs by phase-contrast microscopy based scratch wound healing assay; type: functional; conditions: dose 0.1-1000 nM
[10] = system: HEK293; assay: Induction of cell proliferation in human HEK293 cells assessed as increase in cell viability at 0.1 to 1000 nM incubated for 48 hrs by MTT assay; type: functional, cell-based; conditions: dose 0.1-1000 nM
[11] = species on record: Mus musculus; assay: Wound healing activity in Kunming mouse full-thickness excisional wound model assessed as increase in wound closure at 0.1 to 10 uM, TOP BID and measured upto 8 days by image analysis; type: functional, organism-based; conditions: dose 0.1-10 µM, time <= 8.0 day
[12] = system: Cell membrane; assay: Induction of outer cell membrane permeability in Escherichia coli ATCC 25922 assessed as increase fluoresence intensity at 1 to 8 times of MIC and measured every mins for 15 mins by NPN uptake assay; type: subcellular
[13] = species on record: Mus musculus; assay: Wound healing activity in Kunming mouse full-thickness excisional wound model assessed as increase in wound closure at 1 10^-7M, TOP BID and measured upto 8 days by image analysis; type: functional, organism-based; conditions: time <= 8.0 day
[14] = Hemolytic activity in mouse erythrocytes assessed as haemoglobin release at 400 uM incubated for 1 hrs by microplate reader method; type: toxicity, cell-based, Erythrocyte; conditions: read-out: Activity
[15] = system: Pseudomonas aeruginosa; assay: Antimicrobial activity against Pseudomonas aeruginosa ATCC 27853 assessed as inhibition of bacterial growth incubated for 18 hrs by serial dilution method; type: functional
[16] = system: RAW264.7; assay: Anti-inflammatory activity against LPS-stimulated mouse RAW264.7 cells assessed as reduction in IL-6 mRNA expression level at 1 to 16 uM incubated for 4 hrs by RT-qPCR analysis; type: functional, cell-based; conditions: dose 1-16 µM
[17] = system: Escherichia coli; assay: Antimicrobial activity against Escherichia coli ML-35 assessed as inhibition of bacterial growth incubated for 18 hrs by serial dilution method; type: functional
[18] = system: Staphylococcus aureus; assay: Antimicrobial activity against Staphylococcus aureus ATCC 29213 assessed as inhibition of bacterial growth incubated for 18 hrs by serial dilution method; type: functional
[19] = system: Escherichia coli; assay: Bactericidal activity against Escherichia coli ATCC 25922 assessed as reduction in colony forming unit at 1 times MIC and measured after 120 mins by time-kill kinetics assay; type: functional, organism-based
[20] = system: Staphylococcus aureus; assay: Bactericidal activity against Staphylococcus aureus ATCC 25923 assessed as reduction in colony forming unit at 2 times MIC and measured after 120 mins by time-kill kinetics assay; type: functional, organism-based
[21] = system: Lipopolysaccharide (LPS); assay: Binding affinity to Escherichia coli O111:B4 LPS assessed as dissociation constant by ITC assay
[22] = system: Cell membrane; assay: Induction of cell membrane disruption in Escherichia coli ATCC 25922 assessed as PI uptake at 2 times MIC incubated for 1 hrs by PI staining based confocal laser scanning microscopy; type: subcellular
[23] = system: Staphylococcus aureus; assay: Bactericidal activity against Staphylococcus aureus ATCC 25923 assessed as reduction in colony forming unit at 1 to 4 times MIC and measured after 120 mins by time-kill kinetics assay; type: functional, organism-based
[24] = system: Cell membrane; assay: Induction of cell membrane disruption in Staphylococcus aureus ATCC 25923 assessed as PI uptake at 2 times MIC incubated for 1 hrs by PI staining based confocal laser scanning microscopy; type: subcellular
[25] = system: Cell membrane; assay: Induction of cell membrane disruption in Escherichia coli ATCC 25922 assessed as coagulation of cytoplasmic elements at 2 times MIC incubated for 2 hrs by TEM analysis; type: subcellular
[26] = system: RAW264.7; assay: Anti-inflammatory activity in LPS-stimulated mouse RAW264.7 cells assessed as inhibition of NO production at 16 uM incubated for 24 hrs by Griess reagent based assay; type: functional, cell-based
[27] = system: Cell membrane; assay: Induction of cell membrane disruption in Escherichia coli ATCC 25922 assessed as sparse cytoplasmic distribution at 2 times MIC incubated for 2 hrs by TEM analysis; type: subcellular
[28] = system: RAW264.7; assay: Anti-inflammatory activity against LPS-stimulated mouse RAW264.7 cells assessed as reduction in IL-1beta mRNA expression level at 1 to 16 uM incubated for 4 hrs by RT-qPCR analysis; type: functional, cell-based; conditions: dose 1-16 µM
[29] = system: Cell membrane; assay: Induction of cell membrane disruption in Staphylococcus aureus ATCC 25923 assessed as sparse cytoplasmic distribution at 2 times MIC incubated for 2 hrs by TEM analysis; type: subcellular
[30] = system: Cell membrane; assay: Induction of cell membrane disruption in Staphylococcus aureus ATCC 25923 assessed as coagulation of cytoplasmic elements at 2 times MIC incubated for 2 hrs by TEM analysis; type: subcellular
[31] = system: Cell membrane; assay: Induction of cell membrane disruption in Escherichia coli ATCC 25922 assessed as membrane blebbing at 2 times MIC incubated for 2 hrs by SEM analysis; type: subcellular
[32] = system: Staphylococcus aureus; assay: Antimicrobial activity against Staphylococcus aureus ATCC 25923 assessed as inhibition of bacterial growth incubated for 18 hrs by serial dilution method; type: functional
[33] = species on record: Mus musculus; assay: Wound healing activity in Staphylococcus aureus ATCC 25923 infected Kunming mouse excisional wound model assessed as increase in wound repair at 1 10^-4M, TOP BID and measured upto 8 days by image analysis; type: functional, organism-based; conditions: time <= 8.0 day
[34] = Cytotoxicity against mouse RAW264.7 cells assessed as cell survival rate at 16 uM incubated for 24 hrs by MTT assay; type: toxicity, cell-based; conditions: read-out: Survival
[35] = system: NIH3T3; assay: Induction of cell proliferation in mouse NIH3T3 cells assessed as increase in cell viability at 0.1 to 1000 nM incubated for 48 hrs by MTT assay; type: functional, cell-based; conditions: dose 0.1-1000 nM
[36] = system: Cell membrane; assay: Induction of inner cell membrane permeabilization in Escherichia coli ML-35 assessed as increase in absorbance at 1 to 8 times of MIC and measured every 5mins for 90 mins by ONPG beta-galactosidase based assay; type: subcellular
[37] = system: HEK293; assay: Induction of cell proliferation in human HEK293 cells expressing NK1R assessed as increase in cell viability at 0.1 to 1000 nM incubated for 48 hrs by MTT assay; type: functional, cell-based; conditions: dose 0.1-1000 nM
[38] = system: Cell membrane; assay: Induction of cell membrane disruption in Escherichia coli ATCC 25922 assessed as separation between outer membrane and cytoplasmic membrane at 2 times MIC incubated for 2 hrs by TEM analysis; type: subcellular
[39] = system: Cell membrane; assay: Induction of cell membrane disruption in Escherichia coli ATCC 25922 assessed as distinct wrinkling in cell morphology at 2 times MIC incubated for 2 hrs by SEM analysis; type: subcellular
[40] = system: Cell membrane; assay: Induction of cell membrane disruption in Staphylococcus aureus ATCC 25923 assessed as membrane blebbing at 2 times MIC incubated for 2 hrs by SEM analysis; type: subcellular
[41] = system: Escherichia coli; assay: Bactericidal activity against Escherichia coli ATCC 25922 assessed as reduction in colony forming unit at 4 times MIC and measured after 60 mins by time-kill kinetics assay; type: functional, organism-based
[42] = system: Bacillus subtilis; assay: Antimicrobial activity against Bacillus subtilis ATCC 23857 assessed as inhibition of bacterial growth incubated for 18 hrs by serial dilution method; type: functional
[43] = species on record: Mus musculus; assay: Wound healing activity in Kunming mouse full-thickness excisional wound model with splints assessed as increase in wound healing rate at 1 10^-7M, TOP BID and measured upto 8 days by image analysis; type: functional, organism-based; conditions: time <= 8.0 day
[44] = system: RAW264.7; assay: Cytotoxicity against mouse RAW264.7 cells assessed as reduction in cell viability at 1 to 16 uM incubated for 24 hrs by MTT assay; type: toxicity, cell-based; conditions: raw264.7, 24 h, dose 1-16 µM

## H-LKKWLKKWTLKASQFFGLM-NH2
[1]
  Activity: Dose-Dependent Effect
[2]
  Activity: Active
[3]
  MIC: 2 µM
[4]
  Activity: Active
[5]
  MIC: 2 µM
[6]
  Activity: Active
[7]
  Activity: Active
[8]
  Activity: Active
[9]
  Activity: Active
[10]
  Activity: inactive
[11]
  Activity: inactive
[12]
  Activity: Dose-Dependent Effect
[13]
  Activity: Active
[14]
  hemolysis at 1 h, 400 µM: 19.5%
[15]
  MIC: 2 µM
[16]
  Activity: Dose-Dependent Effect
[17]
  MIC: 2 µM
[18]
  MIC: 4 µM
[19]
  Activity: Active
[20]
  Activity: Active
[21]
  Kd: 13.4 µM
[22]
  Activity: Active
[23]
  Activity: Active
[24]
  Activity: Active
[25]
  Activity: Active
[26]
  inhibition: Active
[27]
  Activity: Active
[28]
  Activity: Dose-Dependent Effect
[29]
  Activity: Active
[30]
  Activity: Active
[31]
  Activity: Active
[32]
  MIC: 2 µM
[33]
  Activity: inactive
[34]
  viability at 24 h, 16 µM: > 90%
[35]
  Activity: Active
[36]
  Activity: Active
[37]
  Activity: Active
[38]
  Activity: Active
[39]
  Activity: Active
[40]
  Activity: Active
[41]
  Activity: Active
[42]
  MIC: 2 µM
[43]
  Activity: Active

## H-LKKWLKKWTPKASQFFGLM-NH2
[1]
  Activity: Dose-Dependent Effect
[3]
  MIC: 2 µM
[5]
  MIC: 4 µM
[9]
  Activity: Active
[10]
  Activity: inactive
[13]
  Activity: Active
[14]
  hemolysis at 1 h, 400 µM: 2.94%
[15]
  MIC: 2 µM
[16]
  Activity: Dose-Dependent Effect
[17]
  MIC: 2 µM
[18]
  MIC: 32 µM
[21]
  Kd: 311 µM
[26]
  inhibition: Active
[28]
  Activity: Dose-Dependent Effect
[32]
  MIC: 32 µM
[34]
  viability at 24 h, 16 µM: > 90%
[35]
  Activity: Active
[37]
  Activity: Active
[42]
  MIC: 2 µM
[43]
  Activity: Active

## H-LKKWTGKASQFFGLM-NH2
[3]
  MIC: 64 µM
[5]
  MIC: 128 µM
[13]
  Activity: Active
[14]
  hemolysis at 1 h, 400 µM: 1.01%
[15]
  MIC: 128 µM
[17]
  MIC: 64 µM
[18]
  MIC: > 128 µM
[26]
  inhibition: inactive
[32]
  MIC: > 128 µM
[44]
  Activity: Non-Toxic
[42]
  MIC: 64 µM

## H-LKKWTLKASQFFGLM-NH2
[3]
  MIC: 16 µM
[5]
  MIC: 64 µM
[13]
  Activity: Active
[14]
  hemolysis at 1 h, 400 µM: 11.2%
[15]
  MIC: 64 µM
[17]
  MIC: 16 µM
[18]
  MIC: 128 µM
[26]
  inhibition: Active
[32]
  MIC: > 128 µM
[34]
  viability at 24 h, 16 µM: > 90%
[42]
  MIC: 16 µM
